Data as given in patent US20230201166A1, “METHODS FOR TREATING CANCER BY INHIBITING CARM1” (DANA-FARBER CANCER INSTITUTE, INC., priority 2020, published 2023).
“Also recorded” adds a separate entry of the source.

Tests used:
B16F10 cells = assay: RT-qPCR of interferon stimulated genes in B16F10 cells; type: cell-based, murine; conditions: 0.1-1 μM, 7 days
Method: (§1) Total RNA was extracted using the RNeasy Mini Kit (Qiagen) according to the manufacturer's protocol. Extracted RNA (1 μg) was transcribed into cDNA using SuperScript IV VILO master mix with ezDNase enzyme according to the manufacturer's protocol (ThermoFisher). The cDNA samples were diluted and used for real-time quantitative PCR (RT-qPCR). Taqman master mix (ThermoFisher) and gene-specific primers were used for PCR amplification and detection using a QuantStudio 6 Flex Real-Time PCR System (ThermoFisher). The RT-qPCR data were normalized to GAPDH and HPRT (housekeeping genes) and presented as fold change of gene expression in the test sample compared to the control sample.

[1] = system: SKBR3, MDA-MB-157 and MDA-MB-436 cells; assay: RT-qPCR of ISGs in human tumor cells; type: cell-based; conditions: 2 μM, 7 days
Method: RT-qPCR analysis of selected ISGs and IFNs in human SKBR3, MDA-MB-157 and MDA-MB-436 cells treated with vehicle or CARM1 inhibitor (2 μM) for 7 days (n=3/group).
as §1

[2] = system: B16F10-OVA-ZsGreen tumor cells; assay: T cell cytotoxicity assay, B16F10-OVA-ZsGreen tumor cells with OT-I CD8 T cells; type: cell-based, murine; conditions: pre-treatment 0.1 μM for 24 hours
Source text: FIG. 3K illustrates that inactivation of Carm1 gene in tumor cells elicits tumor immunity, showing sensitization of tumor cells to T cells with a CARM1 inhibitor. […] Vehicle or inhibitor treated tumor cells were co-cultured with OT-I CD8 T cells at indicated E:T ratios (n=7-8 replicates/condition).
A Celigo image cytometer (Nexcelom) was used to study the killing of fluorescent tumor cells by CD8 T cells. Carm1-KO or control-KO B16-OVA-ZsGreen cells were washed with PBS, and 5,000 tumor cells were added per well in flat-bottom 96-well plates (8-10 replicates/group). OT-I CD8 T cells were added at different effector to target ratios. Following 24 or 48 hours of co-culture, the media was removed, and wells were washed with PBS to remove dead tumor cells and CD8 T cells. Live, adherent tumor cells were then counted using the Celigo image cytometer. As an alternative approach, apoptotic tumor cells were counted based on Caspase 3/7 activation. A Caspase-3/7 reagent (Essen Bioscience) was added directly to the culture media (0.5 μM final concentration) after 12, 24 or 48 hours of co-culture of tumor cells with T cells, and positive tumor cells were counted using the image cytometer.

B16F10 melanomas = assay: Flow cytometry of tumor-infiltrating immune cells, B16F10 melanomas treated with CARM1 inhibitor; type: in vivo, mouse
Source text: FIG. 15A illustrates changes in tumor microenvironment induced by monotherapy or combination therapy with CARM1 inhibitor, showing treatment of mice with B16F10 melanomas with CARM1 inhibitor or vehicle control. Mice also received isotype control, CTLA-4 or PD-1 mAbs, as indicated (n=5 mice/group). Representative flow plots of CD8 T cells gated on live/singlets/CD45+/CD3+ cells from indicated groups are shown on left. Quantification of CD8 T cells is shown as percentage of CD3+ T cells (middle) or number per gram of tumor (right) for the indicated treatment groups.
FIG. 15B illustrates changes in tumor microenvironment induced by monotherapy or combination therapy with CARM1 inhibitor, showing number of intra-tumoral granzyme B+CD8+ T cells per gram of tumor for the indicated treatment groups (n=5 mice/group). Representative flow plots are shown on left.
FIG. 15C illustrates changes in tumor microenvironment induced by monotherapy or combination therapy with CARM1 inhibitor, showing number of intra-tumoral IL2+CD8+ T cells per gram of tumor for the indicated treatment groups (n=5 mice/group).
FIG. 15D illustrates changes in tumor microenvironment induced by monotherapy or combination therapy with CARM1 inhibitor, showing number of intra-tumoral IFNγ+CD8+ T cells per gram of tumor for the indicated treatment groups (n=5 mice/group). Representative flow plots are shown on left.
FIG. 15E illustrates changes in tumor microenvironment induced by monotherapy or combination therapy with CARM1 inhibitor, showing number of intra-tumoral perforin+CD8+ T cells per gram of tumor for the indicated treatment groups (n=5 mice/group).
FIG. 15F illustrates changes in tumor microenvironment induced by monotherapy or combination therapy with CARM1 inhibitor, showing analysis of intra-tumoral PD1+CD8+ T cells (quantified as percentage of CD8+ T cells) for the indicated treatment groups (n=5 mice/group). Representative flow plots (left) and quantification of PD-1 expression as percentage of CD8 T cells (middle) or MFI (right) are shown.
FIG. 16A illustrates changes in tumor microenvironment induced by monotherapy or combination therapy with CARM1 inhibitor, showing treatment of mice with B16F10 melanomas with CARM1 inhibitor or vehicle control. Mice also received isotype control, CTLA-4 or PD-1 mAbs, as indicated (n=5 mice/group). Quantification of CD4+ T cells (number per gram of tumor) for the indicated treatment groups.
FIG. 16B illustrates changes in tumor microenvironment induced by monotherapy or combination therapy with CARM1 inhibitor, showing quantification of IFNγ+ cells (as percentage of CD4+ T cells) for the indicated treatment groups.
FIG. 16C illustrates changes in tumor microenvironment induced by monotherapy or combination therapy with CARM1 inhibitor, showing quantification of FoxP3+ Treg cells (as percentage of CD4+ T cells) for the indicated treatment groups.
FIG. 16D illustrates changes in tumor microenvironment induced by monotherapy or combination therapy with CARM1 inhibitor, showing quantification of the CD8/FoxP3 Treg ratio for the indicated treatment groups.
FIG. 16E illustrates changes in tumor microenvironment induced by monotherapy or combination therapy with CARM1 inhibitor, showing number of intra-tumoral NK cells (left), dendritic cells (live, singlet, CD45+CD3−F4/80-CD11c+ MHCII^hi) (middle) and macrophages (live, singlet, CD45+CD3−F4/80+) (right) calculated per gram of tumor.
Inhibitor treatment was performed for 14 days because limited quantities of the compound were available.
Tumors were excised on day 18 following tumor cell inoculation and cut into small pieces using sterile scalpels in serum-free RPMI 1640 media (ThermoFisher #11875093). […]

[3] = system: malignant melanoma xenograft model; conditions: oral dosing; cited from earlier work
RPMI-8226 = conditions: immunodeficient mouse model; cited from earlier work
[4] = Toxicity study in C57Bl/6 mice; conditions: 150 mg/kg twice daily, oral gavage, 14 days, versus solvent control
Method: Sex and age matched C57Bl/6 mice were randomized into two groups treated twice daily with either CARM1 inhibitor (150 mg/kg) or vehicle via oral gavage for 14 days. Major organs including heart, spleen, kidney, liver, lung and small intestine were harvested for pathological assessment. […] Scale bar=50 μM.

[5] = all three CARM1 inhibitor treatment groups
[6] = combined with PD-1 or CTLA-4 mAbs

## CNC[C@@H](O)COc1ccc(Cl)c(-c2nc(-c3c(C)noc3C)c(C)c(N3CC4(CCN(C(=O)OC)CC4)C3)n2)c1 (stereo in doubt) [EZM2302]
B16F10 cells
  interferon stimulated gene (ISG) expression / mRNA levels: induced up regulation of the ISGs expression; also recorded: significantly increased the mRNA levels of these ISGs
[1]
  expression of ISGs in human breast and melanoma cancer cell lines: induced the expression of a similar set of ISGs
[2]
  sensitization of tumor cells to CD8 T cells: sensitized them to CD8 T cells
B16F10 melanomas; [5]
  number of CD8 T cells (per gram of tumor) that expressed granzyme B, IL-2, IFNγ, and perforin: striking increase
  tumor-infiltrating NK cells: increased
B16F10 melanomas; any of the treatment groups
  macrophage numbers: no changes in macrophage numbers
B16F10 melanomas; [6]
  CD8 T cell infiltration: even higher
  cDC1 cells: increased
  tumor-infiltrating NK cells: highest
B16F10 melanomas; compared to vehicle control group
  PD-1 expression by CD8 T cells: reduced
B16F10 melanomas; monotherapy
  CD8 T cell infiltration: substantially increased
B16F10 melanomas; mouse, in vivo
  number of tumor-infiltrating CD4 T cells or FoxP3+ Tregs: did not change
[3]
  anti-tumor activity: anti-tumor activity
  in vivo CARM1 inhibition: dose-dependent in vivo CARM1 inhibition
RPMI-8226
  in vivo growth of RPMI-8226: moderately slow the in vivo growth
[4]
  histological changes in major organs: no histological changes
  weight loss: no histological changes was observed in a comprehensive analysis of major organs or weight loss
